Data set [1] deals with T1, GST-53BP1 fusion protein containing 53BP1 residues 1480-1626 (Homo sapiens, UniProt Q12888).
T1 construct: a GST-53BP1 fusion protein containing 53BP1 residues 1480-1626 to histones prepared from 293T cells
As to the kind of experiment: Competition of binding of GST-53BP1 to histone H3 by histone H3 peptides (pull-down, immunoblot). The following applies: 5 or 25 μg peptide; histones prepared from 293T cells; bound histone H3 detected by immunoblotting. From the text:
FIG. 3 Binding of the tandem tudor domain of 53BP1 to histone H3 methylated on Lys79. a, GST-53BP1 fusion proteins containing residues 1157-1634 or 1480-1626 of human 53BP1 or plain GST protein were examined for binding to calf thymus histones (ct) or recombinant histones H3 and H4 (r). The proteins were resolved by SDS-PAGE and stained with Coomassie Brilliant Blue. The labels for H3, H2A, H2B and H4 refer to the input histones (Inp. Hist.). b, Identification of 53BP1-bound histones as full-length and N-terminally-cleaved histone H3. Input and GST-53BP1-bound histones were stained with Coomassie Brilliant Blue (C.B.) or immunoblotted (IB) with an antibody that recognizes the C-terminus (C-ter) of histone H3. c, Enrichment for methylation of Lys79 in histone H3 bound to GST-53BP1 as compared to input histone H3. Bound full-length histone H3 (aa 1-135), bound cleaved histone H3 (aa 28-135) and full-length histone H3 from the input fraction were analyzed by tandem mass spectrometry (MS/MS). For each sample, the identified peptides that include Lys79 are shown. K, K# and K## represent non-, mono- and di-methylated lysine, respectively. TIC, total ion current (an indicator of peptide abundance); dM, absolute difference of the experimental and theoretical masses; xCorr, cross correlation value of the experimental MS/MS spectrum versus the theoretical; Ions, number of matched ions in the experimental MS/MS spectrum versus the total number of theoretically possible ions. d, Competition of binding of 53BP1 to histone H3 by methylated histone H3 peptides. Binding of a GST-53BP1 fusion protein containing 53BP1 residues 1480-1626 to histones prepared from 293T cells was performed in the presence of no competitor peptide (−) or 5 or 25 μg histone H3 peptides. Bound histone H3 was detected by immunoblotting. Peptides spanning residues 74-83 of histone H3 had either non- (nm), mono- (mm) or di-methylated (dm) Lys79 (K79); peptides spanning residues 23-34 and 23-32 of histone H3 had dimethylated Lys27 (K27) and Arg26 (R26), respectively. e, Binding of a GST fusion protein containing S. cerevisiae Rad9 residues 750-917 to histone H3. Binding was examined as in a. f, Amino acid substitutions that disrupt recruitment of 53BP1 to sites of DNA DSBs also disrupt binding to histone H3. Binding was examined as in a. g, Crosslinking of ectopically-expressed His-tagged GFP-53BP1 to endogenous histone H3 in irradiated U2OS cells. Non-transfected U2OS cells (−) or cells transfected with His-tagged GFP-53BP1 fusion proteins having wild-type (wt) or mutant (Asp1521Arg, D1521R) 53BP1 were crosslinked with formaldehyde (fr) or were mock-crosslinked (m). Triton-X100 insoluble material (TrIM) from these cells was incubated with nickel-coated beads. Histone H3 in the TrIM and nickel bead-bound (NiBB) fractions was detected by immunoblotting after the crosslinks were reversed.
Glutathione S-transferase (GST) proteins (5 μg) fused to residues 1157-1634 or 1480-1626 of human 53BP1 or 750-917 of S. cerevisiae Rad9 were bound to glutathione beads (Pharmacia). The beads were then incubated for 1 h at 4° C. with histones in buffer containing 25 mM BTP [pH 6.8], 1 M KCl, and 0.5% Triton X-100. After 6 washes the bound material was resolved on SDS-polyacrylamide gels and either stained with Coomassie Brilliant Blue or immunoblotted with an antibody that recognizes the C-terminus of histone H3 (AbCam). […]
On the technique in general: In western blotting, separated proteins are transferred to a membrane and probed.

The target of data set [2] is 53BP1 tandem tudor domain (Homo sapiens, UniProt Q12888). As to the kind of experiment: Isothermal titration calorimetry. The data set is classed as binding. The settings on record: data not shown; read-out: dissociation constant.
Chain of 53BP1 tandem tudor domain (Q12888 1484-1603 limits assumed): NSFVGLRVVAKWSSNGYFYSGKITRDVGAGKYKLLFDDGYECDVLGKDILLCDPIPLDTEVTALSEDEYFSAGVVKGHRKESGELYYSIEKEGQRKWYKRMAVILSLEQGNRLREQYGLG
For data set [3], the target named is T2, human Dot1L (Homo sapiens, UniProt Q8TEK3).
T2 construct: U2OS cells were transfected with control siRNA (luciferase; Dharmacon) or siRNA directed against human dot1L; endogenous in cells; host or cells: U2OS osteosarcoma cells
T2 sequence (Q8TEK3 whole entry): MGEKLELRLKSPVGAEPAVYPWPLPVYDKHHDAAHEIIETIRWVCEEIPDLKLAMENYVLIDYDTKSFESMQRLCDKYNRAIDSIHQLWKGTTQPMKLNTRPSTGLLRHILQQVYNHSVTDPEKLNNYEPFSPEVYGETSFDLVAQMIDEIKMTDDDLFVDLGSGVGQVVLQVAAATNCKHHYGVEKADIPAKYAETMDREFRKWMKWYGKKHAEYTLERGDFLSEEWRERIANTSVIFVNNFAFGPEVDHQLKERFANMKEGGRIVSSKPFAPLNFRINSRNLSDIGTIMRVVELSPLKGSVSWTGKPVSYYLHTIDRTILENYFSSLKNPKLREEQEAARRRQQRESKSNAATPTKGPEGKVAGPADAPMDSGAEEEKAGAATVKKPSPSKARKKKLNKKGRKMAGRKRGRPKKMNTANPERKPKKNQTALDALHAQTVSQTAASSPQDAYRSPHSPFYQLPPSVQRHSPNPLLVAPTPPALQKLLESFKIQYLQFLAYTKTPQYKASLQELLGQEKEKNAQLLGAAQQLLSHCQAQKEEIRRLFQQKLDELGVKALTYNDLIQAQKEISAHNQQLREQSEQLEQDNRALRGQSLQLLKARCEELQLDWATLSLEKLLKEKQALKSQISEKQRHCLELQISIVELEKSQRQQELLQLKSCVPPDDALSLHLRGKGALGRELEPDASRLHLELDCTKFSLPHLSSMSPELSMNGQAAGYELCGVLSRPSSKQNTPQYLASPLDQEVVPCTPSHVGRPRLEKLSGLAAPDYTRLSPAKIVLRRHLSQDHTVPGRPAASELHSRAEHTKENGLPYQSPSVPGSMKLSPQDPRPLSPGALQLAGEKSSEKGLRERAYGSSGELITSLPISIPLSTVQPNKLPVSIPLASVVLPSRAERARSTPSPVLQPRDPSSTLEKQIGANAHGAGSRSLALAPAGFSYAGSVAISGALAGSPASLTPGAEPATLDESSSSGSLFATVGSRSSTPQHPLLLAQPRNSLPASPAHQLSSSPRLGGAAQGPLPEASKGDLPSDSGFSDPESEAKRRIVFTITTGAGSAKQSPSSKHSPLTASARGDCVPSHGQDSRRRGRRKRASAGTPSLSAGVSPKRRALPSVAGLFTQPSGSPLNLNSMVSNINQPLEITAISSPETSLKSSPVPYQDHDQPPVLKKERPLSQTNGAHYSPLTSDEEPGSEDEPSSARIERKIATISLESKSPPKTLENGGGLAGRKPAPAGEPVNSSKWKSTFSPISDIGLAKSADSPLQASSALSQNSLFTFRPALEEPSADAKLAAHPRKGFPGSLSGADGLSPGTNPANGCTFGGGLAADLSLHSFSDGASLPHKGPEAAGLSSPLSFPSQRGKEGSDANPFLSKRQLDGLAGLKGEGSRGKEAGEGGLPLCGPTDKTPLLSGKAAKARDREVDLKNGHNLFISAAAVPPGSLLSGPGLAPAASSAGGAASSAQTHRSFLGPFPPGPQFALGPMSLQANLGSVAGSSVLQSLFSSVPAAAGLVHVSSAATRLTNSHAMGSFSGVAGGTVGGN
Put plainly: Suppression of histone H3 methylation on Lys79 by siRNA (immunoblot). The data set is classed as cell-based. The following applies: U2OS cells, dot1L siRNA transfection (up to 3 rounds).

Data set [4] deals with U2OS cells. As to the kind of experiment: 53BP1 IR-induced foci in irradiated U2OS cells after siRNA (immunofluorescence). In kind it is cell-based, human. The following applies: 9 Gy IR, 15 min later. How it is done:
FIG. 4 Histone H3 methylated on Lys79 and changes in higher order chromatin structure recruit 53BP1 to sites of DNA DSBs and chromatin. a, Suppression of histone H3 methylation on Lys79 inhibits recruitment of 53BP1 to sites of DNA DSBs. The percentage of irradiated (9 Gy) U2OS cells without (w/o) 53BP1 foci was determined from 4 independent experiments of control (ctl) siRNA-treated cells or cells transfected once (1) or 3 consecutive times (3) with dot1L-specific siRNA. Bars indicate standard errors. […] Histones prepared from non-irradiated or irradiated (9 Gy) 293T cells were resolved by SDS-PAGE and stained with Coomassie Brilliant Blue (C.B.; top panel) or immunoblotted with antibodies that recognize the C-terminus (C-ter) of histone H3, histone H3 dimethylated on Lys79 (K79dm), histone H2AX and phosphorylated histone H2AX (γ-H2AX; middle panel). […] Bound histone H3 was detected by immunoblotting (IB; lower panel). c, Exposure of cells to hypotonic media slows the nuclear diffusion of 53BP1. […] To show differences in GFP-53BP1 fluorescence before and after bleaching, the post-bleach image was pseudocolored magenta and merged with the pre-bleach image (Diff. image). […]
3 days after the last siRNA transfection, the cells were exposed to 9 Gy IR and 53BP1 intracellular localization was monitored by immunofluorescence 15 min later^5.

Where a SMILES comes first, the peptide text is derived from it. Where no end group is shown, it is not given here. [ ]: non-standard residue; d: D form. Lys(Me2) = CN(C)CCCC[C@H](N)C(=O)O; d = 2'-deoxy (DNA); r = 2'-OH (RNA) Where only a bound is given, the exact number is not on record here.

T1 sequence (Q12888 1480-1626): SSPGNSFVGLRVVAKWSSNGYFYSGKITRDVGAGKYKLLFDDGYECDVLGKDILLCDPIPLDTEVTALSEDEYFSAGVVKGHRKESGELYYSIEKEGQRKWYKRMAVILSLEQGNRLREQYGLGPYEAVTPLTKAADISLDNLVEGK

Consider `CC[C@H](C)[C@H](N)C(=O)N[C@@H](C)C(=O)N[C@@H](CCC(N)=O)C(=O)N[C@@H](CC(=O)O)C(=O)N[C@@H](Cc1ccccc1)C(=O)N[C@@H](CCCCN(C)C)C(=O)N[C@H](C(=O)N[C@@H](CC(=O)O)C(=O)N[C@@H](CC(C)C)C(=O)N[C@@H](CCCNC(=N)N)C(=O)O)[C@@H](C)O` (H-IAQDF[Lys(Me2)]TDLR-OH; N-terminus and C-terminus assumed), for which the “competition for binding of histone H3 to 53BP1” value (“competition for binding” for short) in data set [1] is on record as “competed for binding of histone H3 to 53BP1”. In data set [2], the Kd is < 1000 nM.

Consider “GCUCGCUAUGGAGAAUUACdTdT (guide GCUCGCUAUGGAGAAUUACTT; siRNA; sugars from the 5' end r19 d2, backbone not given here) [siRNA specific for human Dot1L, siRNA directed against human dot1L]”, for which the “methylation of histone H3 on Lys79” value in data set [3] is recorded as “suppressed”. Besides, the “recruitment of 53BP1 to sites of DNA DSBs” value in data set [4] is given as “suppressed”.

Regarding “corresponding non-methylated peptide: peptide spanning residues 74-83 of histone H3 with non-methylated Lys79 (IAQDFKTDLR)”, the “competition for binding” value in data set [1] is given as “did not compete”.

With “monomethylated Lys79 peptide: peptide spanning residues 74-83 of histone H3 with mono-methylated Lys79 (IAQDFK(Me)TDLR)”, the “competition for binding” value in data set [1] is given as “competed with lower efficiency”.

For “peptide with dimethylated Arg26: peptide spanning residues 23-32 of histone H3 with dimethylated Arg26 (KAARKSAPAT; dimethylated Arg26; UniProt P68431 24-33, looked up, fragment)”, in data set [1], the “competition for binding” value is “competed with lower efficiency”.

Take “peptide with dimethylated Lys27: peptide spanning residues 23-34 of histone H3 with dimethylated Lys27 (KAARKSAPATGG; Lys27 dimethylated; UniProt P68431 24-35, looked up, fragment)”: in data set [1], the “competition for binding” value was “competed with lower efficiency”.
